Oligonucleotides are written 5' to 3', each unit as a sugar letter and its base; * is a phosphorothioate linkage, no mark a phosphodiester; rarer units and linkages stand in square brackets, end groups in braces. Plain capitals give the bases only. e = 2'-O-(2-methoxyethyl) (MOE); [5mC] = 5-methylcytosine; d = 2'-deoxy (DNA)
Experiments:
[1] = tested on: human apolipoprotein B mRNA; assay: Inhibition of human apolipoprotein B mRNA levels in HepG2 cells, quantitative real-time PCR; type: cell-based; parameters: %INHIB of human apolipoprotein B mRNA levels: concentration or dose not given beside the values; conditions: for %INHIB of human apolipoprotein B mRNA levels: averages from two experiments
Method: The human hepatoblastoma cell line HepG2 was obtained from the American Type Culture Collection (Manassas, Va.). HepG2 cells were routinely cultured in Eagle's MEM supplemented with 10% fetal calf serum, non-essential amino acids, and 1 mM sodium pyruvate (Gibco/Life Technologies, Gaithersburg, Md.). Cells were routinely passaged by trypsinization and dilution when they reached 90% confluence. Cells were seeded into 96-well plates (Falcon-Primaria #3872) at a density of 7000 cells/well for use in RT-PCR analysis.
(§1) When cells reached 80% confluency, they were treated with oligonucleotide. For cells grown in 96-well plates, wells were washed once with 200 μL OPTI-MEM™-1 reduced-serum medium (Gibco BRL) and then treated with 130 μL of OPTI-MEM™-1 containing 3.75 μg/mL LIPOFECTIN™ (Gibco BRL) and the desired concentration of oligonucleotide. After 4-7 hours of treatment, the medium was replaced with fresh medium. Cells were harvested 16-24 hours after oligonucleotide treatment.
(§2) Quantitation of apolipoprotein B mRNA levels was determined by real-time quantitative PCR using the ABI PRISM™ 7700 Sequence Detection System (PE-Applied Biosystems, Foster City, Calif.) according to manufacturer's instructions. This is a closed-tube, non-gel-based, fluorescence detection system which allows high-throughput quantitation of polymerase chain reaction (PCR) products in real-time. As opposed to standard PCR, in which amplification products are quantitated after the PCR is completed, products in real-time quantitative PCR are quantitated as they accumulate. This is accomplished by including in the PCR reaction an oligonucleotide probe that anneals specifically between the forward and reverse PCR primers, and contains two fluorescent dyes. A reporter dye (e.g., JOE, FAM, or VIC, obtained from either Operon Technologies Inc., Alameda, Calif. or PE-Applied Biosystems, Foster City, Calif.) is attached to the 5′ end of the probe and a quencher dye (e.g., TAMRA, obtained from either Operon Technologies Inc., Alameda, Calif. or PE-Applied Biosystems, Foster City, Calif.) is attached to the 3′ end of the probe. When the probe and dyes are intact, reporter dye emission is quenched by the proximity of the 3′ quencher dye. During amplification, annealing of the probe to the target sequence creates a substrate that can be cleaved by the 5′-exonuclease activity of Taq polymerase. […] With each cycle, additional reporter dye molecules are cleaved from their respective probes, and the fluorescence intensity is monitored at regular intervals by laser optics built into the ABI PRISM™ 7700 Sequence Detection System. In each assay, a series of parallel reactions containing serial dilutions of mRNA from untreated control samples generates a standard curve that is used to quantitate the percent inhibition after antisense oligonucleotide treatment of test samples.
(§3) PCR reagents were obtained from PE-Applied Biosystems, Foster City, Calif. RT-PCR reactions were carried out by adding 25 μL PCR cocktail (1× TAQMAN™ buffer A, 5.5 mM MgCl2, 300 μM each of DATP, dCTP and dGTP, 600 μM of dUTP, 100 nM each of forward primer, reverse primer, and probe, 20 Units RNAse inhibitor, 1.25 Units AMPLITAQ GOLD™, and 12.5 Units MuLV reverse transcriptase) to 96 well plates containing 25 μL total RNA solution. The RT reaction was carried out by incubation for 30 minutes at 48° C. Following a 10 minute incubation at 95° C. to activate the AMPLITAQ GOLD™, 40 cycles of a two-step PCR protocol were carried out: 95° C. for 15 seconds (denaturation) followed by 60° C. for 1.5 minutes (annealing/extension).
Gene target quantities obtained by real time RT-PCR are normalized using either the expression level of GAPDH, a gene whose expression is constant, or by quantifying total RNA using RiboGreen™ (Molecular Probes, Inc. Eugene, Oreg.). GAPDH expression is quantified by real time RT-PCR, by being run simultaneously with the target, multiplexing, or separately. […]

[2] = tested on: mouse apolipoprotein B mRNA; assay: Inhibition of mouse apolipoprotein B mRNA levels in primary hepatocytes, quantitative real-time PCR; type: cell-based; parameters: %INHIB of mouse apolipoprotein B mRNA levels: concentration or dose not given beside the values; conditions: for %INHIB of mouse apolipoprotein B mRNA levels: averages from two experiments
Method: Primary mouse hepatocytes were prepared from CD-1 mice purchased from Charles River Labs (Wilmington, Mass.) and were routinely cultured in Hepatoyte Attachment Media (Gibco) supplemented with 10% Fetal Bovine Serum (Gibco/Life Technologies, Gaithersburg, Md.), 250 nM dexamethasone (Sigma), and 10 nM bovine insulin (Sigma). Cells were seeded into 96-well plates (Falcon-Primaria #3872) at a density of 10000 cells/well for use in RT-PCR analysis.
as §1, §2, §3
Gene target quantities obtained by real time RT-PCR are normalized using either the expression level of GAPDH, a gene whose expression is constant, or by quantifying total RNA using RiboGreen™ (Molecular Probes, Inc. Eugene, Oreg.). GAPDH expression is quantified by real time RT-PCR, by being run simultaneously with the target, multiplexing, or separately. Total RNA is quantified using RiboGreen™ RNA quantification reagent from Molecular Probes. […]

Substance | %INHIB of human apolipoprotein B mRNA levels [1] | %INHIB of mouse apolipoprotein B mRNA levels [2] | further results
147810 (antisense eA*eT*eT*eT*e[5mC]*dA*dG*d[5mC]*dA*dT*dA*dT*dG*dA*dG*e[5mC]*e[5mC]*e[5mC]*eA*eT) [compound 147810] | 0% |  | 
147829 (antisense eT*eA*eT*eA*eT*d[5mC]*d[5mC]*d[5mC]*dA*dG*dG*dT*dT*dT*d[5mC]*e[5mC]*e[5mC]*e[5mC]*eG*eG) [compound 147829] | 64% |  | 
147826 (antisense eT*e[5mC]*eA*eG*eG*dG*dT*dG*dA*dG*d[5mC]*d[5mC]*d[5mC]*dT*dG*eT*eG*eT*eG*eT) [compound 147826] | 80% |  | 
147790 (antisense eT*eG*eT*eG*e[5mC]*dT*dA*d[5mC]*d[5mC]*dA*dT*d[5mC]*d[5mC]*d[5mC]*dA*eT*eA*e[5mC]*eT*eT) [compound 147790] | 33% |  | 
147827 (antisense e[5mC]*eT*eA*eA*eT*dG*dG*d[5mC]*d[5mC]*d[5mC]*d[5mC]*dT*dT*dG*dA*eT*eA*eA*eA*e[5mC]) [compound 147827] | 13% |  | 
147786 (antisense e[5mC]*eT*eT*eG*eA*dA*dT*d[5mC]*dA*dG*d[5mC]*dA*dG*dT*d[5mC]*e[5mC]*e[5mC]*eA*eG*eG) [compound 147786] | 34% |  | 
147794 (antisense eG*eT*eA*eA*eT*d[5mC]*dT*dT*d[5mC]*dA*dT*d[5mC]*d[5mC]*d[5mC]*d[5mC]*eA*eG*eT*eG*e[5mC]) [compound 147794] | 47% |  | 
147818 (antisense eA*eG*eT*eG*eA*dT*dG*dG*dA*dA*dG*d[5mC]*dT*dG*d[5mC]*eG*eA*eT*eA*e[5mC]) [compound 147818] | 30% |  | 
147831 (antisense e[5mC]*eT*eG*e[5mC]*e[5mC]*dT*dA*d[5mC]*dT*dG*d[5mC]*dA*dA*dG*dG*e[5mC]*eT*eG*eG*e[5mC]) [compound 147831] | 0% |  | 
147809 (antisense e[5mC]*e[5mC]*e[5mC]*eA*eG*dT*dG*dA*dT*dA*dG*d[5mC]*dT*d[5mC]*dT*eG*eT*eG*eA*eG) [compound 147809] | 60% |  | 
147806 (antisense eA*eT*eG*eT*eG*dG*dT*dA*dA*d[5mC]*dG*dA*dG*d[5mC]*d[5mC]*e[5mC]*eG*eA*eA*eG) [compound 147806] | 100% |  | Percent Inhibition of human apolipoprotein B mRNA levels ([1]; 50 nM): 23%; Percent Inhibition of human apolipoprotein B mRNA levels ([1]; 150 nM): 45%; Percent Inhibition of human apolipoprotein B mRNA levels ([1]; 250 nM): 28%
147785 (antisense eG*e[5mC]*e[5mC]*e[5mC]*eG*d[5mC]*d[5mC]*dA*dG*d[5mC]*dA*dG*d[5mC]*dA*dG*e[5mC]*eA*eG*e[5mC]*eA) [compound 147785] | 29% |  | 
147825 (antisense eA*eG*eA*eA*eG*d[5mC]*dT*dG*d[5mC]*d[5mC]*dT*d[5mC]*dT*dT*d[5mC]*eT*eT*e[5mC]*e[5mC]*e[5mC]) [compound 147825] | 72% |  | 
147814 (antisense e[5mC]*e[5mC]*e[5mC]*eA*eA*dT*dA*dA*dG*dA*dT*dT*dT*dA*dT*eA*eA*e[5mC]*eA*eA) [compound 147814] | 34% |  | 
147801 (antisense e[5mC]*eA*eG*eA*e[5mC]*d[5mC]*d[5mC]*dG*dA*d[5mC]*dT*d[5mC]*dG*dT*dG*eG*eA*eA*eG*eA) [compound 147801] | 38% |  | 
147781 (antisense eA*e[5mC]*e[5mC]*eG*eA*dG*dA*dA*dG*dG*dG*d[5mC]*dA*d[5mC]*dT*e[5mC]*eA*eG*e[5mC]*e[5mC]) [compound 147781] | 35% |  | 
147780 (antisense e[5mC]*e[5mC]*eG*e[5mC]*eA*dG*dG*dT*d[5mC]*d[5mC]*d[5mC]*dG*dG*dT*dG*eG*eG*eA*eA*eT) [compound 147780] | 40% |  | 
147769 (antisense e[5mC]*eA*eT*eG*e[5mC]*d[5mC]*dT*dG*dG*dA*dA*dG*d[5mC]*d[5mC]*dA*eG*eT*eG*eT*e[5mC]) [compound 147769] |  | 89% | Percent Inhibition of mouse apolipoprotein B mRNA levels ([2]; 50 nM): 3%; Percent Inhibition of mouse apolipoprotein B mRNA levels ([2]; 150 nM): 14%; Percent Inhibition of mouse apolipoprotein B mRNA levels ([2]; 300 nM): 28%
147485 (antisense eA*eT*eT*eT*eG*dG*dG*dA*d[5mC]*dG*dA*dA*dT*dG*dT*eA*eT*eG*e[5mC]*e[5mC]) [compound 147485] |  | 64% | 
147483 (antisense eA*eT*eG*eT*e[5mC]*dA*dA*dT*dG*d[5mC]*d[5mC]*dA*d[5mC]*dA*dT*eG*eT*e[5mC]*e[5mC]*eA) [compound 147483] |  |  | Percent Inhibition of mouse apolipoprotein B mRNA levels ([2]; 50 nM): 56%; Percent Inhibition of mouse apolipoprotein B mRNA levels ([2]; 150 nM): 88%; Percent Inhibition of mouse apolipoprotein B mRNA levels ([2]; 300 nM): 89%
147478 (antisense eT*e[5mC]*e[5mC]*eA*eG*dG*dA*dA*dT*dT*dG*dA*dG*d[5mC]*dT*eT*eG*eT*eG*e[5mC]) [compound 147478] |  | 78% | 
147481 (antisense eT*eG*eA*e[5mC]*eT*dG*dT*d[5mC]*dA*dA*dG*dG*dG*dT*dG*eA*eG*e[5mC]*eT*eG) [compound 147481] |  | 24% | 
147487 (antisense eT*eT*e[5mC]*e[5mC]*e[5mC]*dA*dG*dT*d[5mC]*dA*dG*d[5mC]*dT*dT*dT*eA*eG*eT*eG*eG) [compound 147487] |  | 73% | 
147767 (antisense e[5mC]*eG*eT*e[5mC]*e[5mC]*dT*dT*dG*dA*dG*d[5mC]*dA*dG*dT*dG*e[5mC]*e[5mC]*e[5mC]*eG*eA) [compound 147767] |  | 5% | 
147766 (antisense eG*eG*eA*eG*e[5mC]*d[5mC]*d[5mC]*dA*d[5mC]*dG*dT*dG*d[5mC]*dT*dG*eA*eG*eA*eT*eT) [compound 147766] |  | 59% | 
147475 (antisense eA*eT*eT*eG*eT*dA*dT*dG*dT*dG*dA*dG*dA*dG*dG*eT*eG*eA*eG*eG) [compound 147475] |  | 79% | 
147482 (antisense eG*eT*e[5mC]*e[5mC]*eA*dG*d[5mC]*d[5mC]*dT*dA*dG*dG*dA*dA*d[5mC]*eA*e[5mC]*eT*e[5mC]*eA) [compound 147482] |  | 59% | 

From patent US8735364B2, “Antisense modulation of apolipoprotein B expression” (Genzyme Corporation, priority 2001, dated 2014)
